These results are taken from patent EP0828726B1, “TRICYCLIC INHIBITORS OF MATRIX METALLOPROTEINASES” (WARNER-LAMBERT COMPANY, priority 1995, dated 1996).

One may read the IC50 as the point on the concentration scale where inhibition reaches its midpoint. For orientation: inhibition means the share of the control response that was lost under treatment. Read a high inhibition as a response far below the control.

The target of experiment [1] is T1, stromelysin-1 (full-length native enzyme) (Homo sapiens, UniProt P08254).
T1 construct: stromelysin-1 (full-length native enzyme)
As to the kind of experiment: Thiopeptolide substrate IC50 assay, full-length stromelysin-1. The experiment is classed as biochemical. How it is done: (§1) Experiments were carried out with both the full-length enzymes and the catalytic domains. […] IC50 values were determined using a thiopeptolide substrate, Ac-Pro-Leu-Gly-thioester-Leu-Leu-Gly-OEt (Ye Q.-Z., Johnson L.L., Hupe D.J., and Baragi V., "Purification and Characterization of the Human Stromelysin Catalytic Domain Expressed in Escherichia coli", Biochemistry, 1992;31:11231-11235). […] IC50 values for gelatinase B, and collagenase, were >100 µM.

Experiment [2] has as its system Mycobacterium footpad edema. As to the kind of experiment: Mycobacterium footpad edema assay (MFE). The note with it: in Rattus norvegicus, po, paw swelling on third day. Type of experiment: in vivo, Wistar rats. The method, then:
The activity of Example 2 as a general inhibitor of inflammation was tested using the Mycobacterium footpad edema assay (MFE) in Wistar rats. Compound was administered daily by gavage at 2 mg/kg, 10 mg/kg, or 50 mg/kg.
Male outbred Wistar rats (110-125 g, Charles River Labs, Portage, MI) were used in this study. Rats were housed for a minimum of 1 week before use. Food and water were supplied ad libitum. Foot pad edema was induced following the method described by Martel R.R. and Klicius J., "Comparisons in rats of the antiinflammatory and gastric irritant effects of etodolac with several clinically effective antiinflammatory drugs", Agents and Actions, 1982;12:295. Briefly, male Wistar rats were injected subcutaneously into the right hind footpad with 0.1 mL of 5 mg/mL suspension of killed and dried Mycobacterium butyricum (Difco, Detroit, MI) in liquid paraffin. Compound was suspended in 0.5% hydroxypropylmethylcellulose (HPMC) containing 0.2% Tween-80 and administered orally 1 hour before injection. Subsequent doses of the compound were given 24 and 48 hours after the Mycobacterium. Control animals were given vehicle alone. Swelling was assessed on the third day by subtracting the initial volume (determined immediately following the Mycobacterium injection) from the final volume of the treated paw. Paw volume was determined by mercury plethysmography. The percent inhibition of edema achieved in each compound-treated group was determined by comparison with swelling in the vehicle-treated group and the ID50 values were determined by regression analysis. Statistical significance between experimental groups was evaluated using a Student's t-test. […]

Experiment [3] has as its target T2, GCD (recombinant gelatinase A catalytic domain) (Homo sapiens, UniProt P08253, DEL220-393).
T2 construct: The gelatinase A catalytic domain, GCD, was similarly constructed with the additional removal of the fibronectin-like insert which interrupts the catalytic domain; made in house
In words: Thiopeptolide substrate IC50 assay, gelatinase A catalytic domain. Type of experiment: biochemical. From the text:
(§2) Matrix metalloproteinases share high sequence homology and the catalytic domains of each of the MMPs can be identified by sequence alignment. The gene for the catalytic domain of stromelysin-1, SCD, was constructed by removing the propeptide and C-terminal domain (Ye Q.-Z., Johnson L.L, Hupe D.J., and Baragi V., "Purification and Characterization of the Human Stromelysin Catalytic Domain Expressed in Escherichia coli", Biochemistry, 1992;31:11231-11235). The gelatinase A catalytic domain, GCD, was similarly constructed with the additional removal of the fibronectin-like insert which interrupts the catalytic domain (Ye Q.-Z., Johnson L.L, Yu A.E., and Hupe D., "Reconstructed 19 kDa Catalytic Domain of Gelatinase A is an Active Proteinase", Biochemistry, 1995;34:4702-4708). Both truncated proteins cleave synthetic peptide substrates and the natural substrates proteoglycan and gelatin in a manner similar to the full-length enzymes and can be used to identify matrix metalloproteinase inhibitors.
(§3) Experiments were carried out with both the full-length enzymes and the catalytic domains. […] IC50 values were determined using a thiopeptolide substrate, Ac-Pro-Leu-Gly-thioester-Leu-Leu-Gly-OEt (Ye Q.-Z., Johnson L.L., Hupe D.J., and Baragi V., "Purification and Characterization of the Human Stromelysin Catalytic Domain Expressed in Escherichia coli", Biochemistry, 1992;31:11231-11235). […]

The target of experiment [4] is T3, gelatinase A (recombinant full-length enzyme) (Homo sapiens, UniProt P08253).
T3 construct: gelatinase A (recombinant full-length enzyme)
T3 sequence (P08253 110-660): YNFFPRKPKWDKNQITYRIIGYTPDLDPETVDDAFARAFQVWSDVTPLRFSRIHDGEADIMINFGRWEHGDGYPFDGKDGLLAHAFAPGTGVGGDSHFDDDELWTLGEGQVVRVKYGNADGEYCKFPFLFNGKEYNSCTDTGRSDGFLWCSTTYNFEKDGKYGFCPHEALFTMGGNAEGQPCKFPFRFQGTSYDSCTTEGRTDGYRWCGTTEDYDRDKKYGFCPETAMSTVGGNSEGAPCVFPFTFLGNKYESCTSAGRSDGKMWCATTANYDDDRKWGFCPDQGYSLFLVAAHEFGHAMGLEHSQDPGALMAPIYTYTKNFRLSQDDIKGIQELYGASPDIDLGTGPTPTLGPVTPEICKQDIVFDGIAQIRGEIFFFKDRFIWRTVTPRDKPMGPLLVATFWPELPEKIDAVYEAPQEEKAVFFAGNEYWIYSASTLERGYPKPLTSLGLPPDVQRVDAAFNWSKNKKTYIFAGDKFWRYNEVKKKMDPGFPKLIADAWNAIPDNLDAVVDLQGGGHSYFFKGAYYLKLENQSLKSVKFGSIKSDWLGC
As to the kind of experiment: Thiopeptolide substrate IC50 assay, full-length gelatinase A. The experiment is classed as biochemical. The method, then:
as §1

Experiment [5] concerns the target T4, gelatinase B (recombinant full-length enzyme) (Homo sapiens, UniProt P14780).
T4 construct: gelatinase B (recombinant full-length enzyme)
As to the kind of experiment: Thiopeptolide substrate IC50 assay, gelatinase B. Type of experiment: biochemical. How it is done: as §1

A further experiment concerns EAE. As to the kind of experiment: Experimental allergic encephalomyelitis (EAE), Lewis rat acute model. The experiment is classed as in vivo. The method, then: Female Lewis rats were purchased from Harlan Sprague-Dawley (Indianapolis, IN) and were used at 8 to 10 weeks of age. Active EAE was induced by injection of 0.05 mL emulsion of myelin basic protein (MBP) with complete Freund's adjuvant (CFA), containing 25 µg guinea pig MBP and 100 µg Mycobacterium butyricum (Difco Laboratories, Detroit, MI) into one hind footpad. Immunized rats were observed daily for clinical signs of EAE and scored as follows: 0, no symptoms; 1, loss of tail tonicity; 2, paresis; 3, hind limb paralysis, often accompanied by incontinence; and 4, death. Formalin-fixed brain slice sections were stained with hematoxylin-eosin and evaluated microscopically for perivascular and parenchymal infiltration. Compound was administered by gavage as a solution in sterile saline in a volume of 500 µL. […] Several different protocols were used to define the efficacy and timing requirements for potency.
Protocol 1: Compound was administered daily at 50 mg/kg beginning on Day 0 and continuing through Day 14, with MBP in CFA administered on Day 0 also. […] N = 5 for all groups.
Controls run in parallel included CFA only and MBP in CFA. N = 4 for treatment groups. N = 8 for controls.

The target in experiment [6] is T5, SCD (stromelysin-1 catalytic domain) (Homo sapiens, UniProt P08254).
T5 construct: The gene for the catalytic domain of stromelysin-1, SCD, was constructed by removing the propeptide and C-terminal domain; made in house; host or cells: Escherichia coli
As to the kind of experiment: Thiopeptolide substrate IC50 assay, stromelysin-1 catalytic domain. The experiment is classed as biochemical.
Source text: as §2, §3

[7] abbreviates: Protocol 1: CFA + MBP, 50 mg/kg daily oral Day 0 through Day 14.
The mark [8] stands for this setting: Protocol 2: CFA + MBP, 10 mg/kg alternate days.
The mark [9] stands for this setting: Protocol 2: CFA + MBP, 50 mg/kg alternate days.

Some results are limits rather than exact numbers.

T4 sequence (P14780 94-707): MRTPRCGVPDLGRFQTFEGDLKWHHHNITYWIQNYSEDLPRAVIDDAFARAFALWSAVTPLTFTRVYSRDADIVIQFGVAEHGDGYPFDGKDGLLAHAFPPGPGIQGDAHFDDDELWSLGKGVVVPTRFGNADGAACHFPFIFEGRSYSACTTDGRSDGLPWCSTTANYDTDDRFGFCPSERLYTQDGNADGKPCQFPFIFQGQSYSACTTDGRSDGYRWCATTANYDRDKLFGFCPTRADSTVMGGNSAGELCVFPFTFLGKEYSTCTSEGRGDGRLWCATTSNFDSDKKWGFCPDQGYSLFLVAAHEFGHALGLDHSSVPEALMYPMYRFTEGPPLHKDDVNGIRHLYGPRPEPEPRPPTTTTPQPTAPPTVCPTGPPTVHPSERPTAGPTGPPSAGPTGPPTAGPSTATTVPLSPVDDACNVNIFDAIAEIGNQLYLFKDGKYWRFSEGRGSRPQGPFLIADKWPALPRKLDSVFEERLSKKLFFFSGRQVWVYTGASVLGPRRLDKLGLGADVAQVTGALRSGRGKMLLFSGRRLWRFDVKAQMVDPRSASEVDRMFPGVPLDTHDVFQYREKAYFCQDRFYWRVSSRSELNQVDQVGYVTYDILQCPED
T2 sequence (P08253 with tags, fused parts or gaps DEL220-393): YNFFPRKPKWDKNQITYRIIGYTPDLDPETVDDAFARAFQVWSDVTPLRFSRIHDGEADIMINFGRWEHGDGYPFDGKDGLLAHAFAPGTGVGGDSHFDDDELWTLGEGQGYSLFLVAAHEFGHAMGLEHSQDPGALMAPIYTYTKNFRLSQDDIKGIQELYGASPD
T1 sequence (P08254 100-477): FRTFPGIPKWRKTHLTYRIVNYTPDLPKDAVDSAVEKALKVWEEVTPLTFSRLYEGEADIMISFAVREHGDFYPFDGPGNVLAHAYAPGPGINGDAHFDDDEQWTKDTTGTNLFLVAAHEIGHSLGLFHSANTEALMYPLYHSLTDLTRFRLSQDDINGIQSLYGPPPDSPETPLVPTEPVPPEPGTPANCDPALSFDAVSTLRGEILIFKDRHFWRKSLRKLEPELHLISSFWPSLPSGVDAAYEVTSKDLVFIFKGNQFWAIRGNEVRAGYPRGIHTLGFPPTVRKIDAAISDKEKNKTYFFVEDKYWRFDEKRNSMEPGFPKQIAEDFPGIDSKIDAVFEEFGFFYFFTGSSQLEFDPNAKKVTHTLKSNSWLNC
T5 sequence (P08254 100-272 limits assumed): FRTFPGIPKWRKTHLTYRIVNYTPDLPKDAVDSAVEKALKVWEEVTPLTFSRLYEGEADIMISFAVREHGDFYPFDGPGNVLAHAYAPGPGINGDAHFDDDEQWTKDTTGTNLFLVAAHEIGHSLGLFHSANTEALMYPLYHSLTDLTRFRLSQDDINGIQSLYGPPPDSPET

For `O=C(O)CCC(=NO)c1ccc2oc3ccccc3c2c1` [Example 2, 4-Dibenzofuran-2-yl-4-hydroximino-butyric acid], the IC50 in experiment [1] is 7.64 µM; in experiment [3], 40 nM; in experiment [4], 1310 nM; in experiment [5], over 100 µM; in experiment [6], 7.12 µM. Moreover, the inhibition at 2 mg/kg in experiment [2] (2 mg/kg daily by gavage) was determined as 23%. In experiment [2] (10 mg/kg daily by gavage), this compound registered an inhibition at 10 mg/kg of 27%. Besides, in experiment [2] (50 mg/kg daily by gavage), the inhibition at 50 mg/kg stood at 40%. In the experiment with EAE (Protocol 1, 50 mg/kg daily), the “treated animals showing reduction of symptoms” value is listed as 20%. In the experiment with EAE (Protocol 1, 50 mg/kg daily), the “treated animals showing total inhibition of symptoms” value turned out to be 80%. In the experiment on EAE (Protocol 1, 50 mg/kg daily, histology of brain slices), the “leukocyte migration across the blood-brain barrier” value was “completely prevented”. Also, the “percentage of animals responding” value in the experiment on EAE (Protocol 1, 50 mg/kg daily, total inhibition or reduction of symptoms) is 100%. Also, the “Day of Peak Expression” value came to 12 with EAE (setting [7]), 14 with EAE (setting [8]) and 15 in the experiment with EAE (setting [9]). Moreover, the “Effect on EAE Rats (≥Paresis/ Total)” value in the experiment with EAE (setting [7]) is listed as 1/5; in the experiment on EAE (Protocol 1: CFA only (no MBP), 50 mg/kg daily oral) it was 0/5; in the experiment with EAE (setting [8]) it was 0/4; in the experiment on EAE (setting [9]) it was 0/4. For the same compound, the “Clinical Grade at Peak of Disease” value is given as 1.0 in the experiment with EAE (Protocol 1: CFA + MBP, 50 mg/kg daily oral Day 0 through Day 14, score 0-4, N = 5); 0 with EAE (Protocol 1: CFA only (no MBP), 50 mg/kg daily oral, N = 5); 0.6 in the experiment on EAE (Protocol 2: CFA + MBP, 10 mg/kg on Day 0 and alternate days through Day 14, N = 4); 0.8 in the experiment with EAE (Protocol 2: CFA + MBP, 50 mg/kg on Day 0 and alternate days through Day 14, N = 4).
